Experimental data reported in ChEMBL document CHEMBL1201862, “PubChem BioAssay data set” (2004).
The source made the active and inactive calls.

What was measured:
Prothrombin = Prothrombin (Homo sapiens, UniProt P00734); assay: Thrombin 1536 HTS Dose Response Confirmation. [Related pubchem assays: 1046 (Thrombin 1536 HTS; hits were confirmed in this assay)]; assay type: functional
[1] = target: Induced myeloid leukemia cell differentiation protein Mcl-1 (Homo sapiens, UniProt Q07820); assay type: functional
Chain of Induced myeloid leukemia cell differentiation protein Mcl-1 (Q07820 whole entry): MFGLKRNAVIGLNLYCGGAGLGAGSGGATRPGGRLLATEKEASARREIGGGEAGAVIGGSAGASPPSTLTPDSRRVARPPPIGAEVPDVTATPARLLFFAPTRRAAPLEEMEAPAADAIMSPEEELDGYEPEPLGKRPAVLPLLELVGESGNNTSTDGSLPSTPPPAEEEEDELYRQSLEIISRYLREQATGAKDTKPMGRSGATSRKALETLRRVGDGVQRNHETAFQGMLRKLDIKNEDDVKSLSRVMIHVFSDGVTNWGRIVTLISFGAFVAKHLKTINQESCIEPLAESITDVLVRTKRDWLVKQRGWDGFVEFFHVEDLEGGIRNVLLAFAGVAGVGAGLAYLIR

[2] = P. falciparum late gametocyte killing, dose response, luminescence (AID 1117278); assay type: functional, cell-based;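 further: gametocytes exposed to compound for 24 hours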
[3] = Jurkat T cell cytotoxicity, dose response, cytotoxicity control for P. falciparum gametocyte viability project, luminescence (AID 1117277); assay type: functional, cell-based;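 further: potency reflects loss of cellular ATP meaning fewer viable cells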
[4] = A549 cell cytotoxicity, dose response, cytotoxicity control, plate reader, cherry-pick, antagonist series (AID 743412); assay type: functional, cell-based
[5] = HepG2 cell cytotoxicity, dose response, cytotoxicity control, plate reader, cherry-pick, antagonist series (AID 743416); assay type: functional, cell-based
[6] = MC4R antagonists, dose response, counter-screen for LGR2 antagonist project, cell-based, plate reader, cherry pick (AID 743444); assay type: functional;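 further: transfected HEK 293 cells stimulated with alpha-MSH peptide; potency of inhibitors of the alpha-MSH evoked signal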
[7] = target: T1, Carboxy-terminal domain RNA polymerase II polypeptide A small phosphatase 1 (Homo sapiens, UniProt Q9GZU7); assay: inhibitors of CTDSP1, concentration-response testing, biochemical assay, absorbance-based, actives from ultra-high-throughput screening (AID 540297); assay type: functional
T1 sequence (Q9GZU7 whole entry): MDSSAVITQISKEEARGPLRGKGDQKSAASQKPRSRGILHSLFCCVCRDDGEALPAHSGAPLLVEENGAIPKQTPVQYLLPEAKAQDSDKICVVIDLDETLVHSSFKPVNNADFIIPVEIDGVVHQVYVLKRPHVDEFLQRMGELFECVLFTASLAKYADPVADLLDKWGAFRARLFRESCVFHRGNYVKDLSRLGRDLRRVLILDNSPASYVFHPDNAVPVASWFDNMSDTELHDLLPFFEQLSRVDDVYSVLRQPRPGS

Aminopeptidase N = target: T2, Aminopeptidase N (Plasmodium falciparum FcB1/Columbia, UniProt O96935); assay: P. falciparum M1AAP inhibitors, biochemical, fluorogenic H-Leu-NHMec substrate, 1536-well (AID 1445); parameters: species or system Plasmodium falciparum 3D7, 3D7
T2 sequence (O96935 whole entry): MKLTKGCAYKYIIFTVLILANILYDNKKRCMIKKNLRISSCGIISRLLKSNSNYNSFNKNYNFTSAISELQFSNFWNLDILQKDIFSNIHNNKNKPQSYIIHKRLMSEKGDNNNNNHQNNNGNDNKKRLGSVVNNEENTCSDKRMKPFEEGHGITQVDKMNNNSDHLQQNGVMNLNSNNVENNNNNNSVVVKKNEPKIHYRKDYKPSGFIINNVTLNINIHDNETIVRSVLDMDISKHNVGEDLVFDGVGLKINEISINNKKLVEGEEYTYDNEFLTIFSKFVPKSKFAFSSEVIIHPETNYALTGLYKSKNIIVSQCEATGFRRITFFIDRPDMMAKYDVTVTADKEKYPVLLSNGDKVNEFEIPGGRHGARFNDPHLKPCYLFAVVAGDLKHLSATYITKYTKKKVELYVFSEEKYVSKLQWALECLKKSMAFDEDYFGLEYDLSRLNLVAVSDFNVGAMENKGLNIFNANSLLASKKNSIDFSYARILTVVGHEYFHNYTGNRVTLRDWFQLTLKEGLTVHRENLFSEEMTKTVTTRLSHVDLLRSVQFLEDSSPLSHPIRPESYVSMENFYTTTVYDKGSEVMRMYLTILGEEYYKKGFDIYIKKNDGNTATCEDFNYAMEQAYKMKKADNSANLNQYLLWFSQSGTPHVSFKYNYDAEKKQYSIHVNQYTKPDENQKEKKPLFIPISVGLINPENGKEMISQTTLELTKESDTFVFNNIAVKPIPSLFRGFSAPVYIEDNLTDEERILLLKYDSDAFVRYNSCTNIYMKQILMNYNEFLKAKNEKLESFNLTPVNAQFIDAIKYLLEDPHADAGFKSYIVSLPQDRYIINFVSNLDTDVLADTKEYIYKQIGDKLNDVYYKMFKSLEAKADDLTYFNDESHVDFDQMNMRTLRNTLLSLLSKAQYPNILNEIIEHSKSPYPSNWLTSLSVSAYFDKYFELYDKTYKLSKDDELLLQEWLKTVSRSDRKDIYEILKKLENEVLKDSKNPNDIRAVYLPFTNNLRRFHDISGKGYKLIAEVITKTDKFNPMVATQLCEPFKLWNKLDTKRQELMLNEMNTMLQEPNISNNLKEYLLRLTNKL

[8] = target: T3, Polyadenylate-binding protein 1 (Homo sapiens, UniProt P11940); assay: PABP1 MLLE–PAM2 interaction inhibitors, dose response, miRNA deadenylation inhibitor project, biochemical, fluorescence polarization, Cy5-PAM2 peptide, secondary (AID 602260); assay type: functional; settings: read-out: IC50_Mean
T3 sequence (P11940 whole entry): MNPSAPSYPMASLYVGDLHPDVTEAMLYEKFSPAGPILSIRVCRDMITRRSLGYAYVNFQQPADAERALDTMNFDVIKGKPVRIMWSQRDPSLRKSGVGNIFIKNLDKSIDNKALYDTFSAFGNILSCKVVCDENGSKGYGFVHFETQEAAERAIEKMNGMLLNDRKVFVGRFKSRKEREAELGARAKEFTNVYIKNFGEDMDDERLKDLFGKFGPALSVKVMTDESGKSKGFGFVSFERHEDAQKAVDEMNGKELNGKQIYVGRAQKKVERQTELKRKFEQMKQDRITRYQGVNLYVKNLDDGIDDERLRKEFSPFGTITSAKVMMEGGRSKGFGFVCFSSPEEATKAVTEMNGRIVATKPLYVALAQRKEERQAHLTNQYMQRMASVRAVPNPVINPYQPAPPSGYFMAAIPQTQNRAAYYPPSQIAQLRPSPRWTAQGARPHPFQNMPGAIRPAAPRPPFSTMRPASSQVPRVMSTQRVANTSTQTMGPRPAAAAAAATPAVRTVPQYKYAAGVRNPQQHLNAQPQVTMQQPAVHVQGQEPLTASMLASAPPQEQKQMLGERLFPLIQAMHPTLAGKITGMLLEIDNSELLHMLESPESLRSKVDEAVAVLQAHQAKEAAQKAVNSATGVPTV

[9] = target: T3, Polyadenylate-binding protein 1; assay: PABP1 MLLE–PAM2 binding inhibitor potency, dose response, biochemical, fluorescence polarization, FITC-PAM2 peptide (AID 602259); assay type: functional; settings: read-out: IC50_Mean
[10] = NIH-3T3 fibroblast cytotoxicity, dose response, cytotoxicity control, cell-based, fluorescence, Alamar Blue, secondary assay (AID 2327); assay type: functional;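 further: NIH-3T3 mouse fibroblasts cultured with fluconazole at 8 µg/mL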
cells [11] = assay type: functional, cell-based
[12] = C. albicans growth with fluconazole, confirmation, fluorescence, retest (AID 2467); assay type: functional, cell-based
cells [13] = assay type: functional, cell-based; remark: listed apart in the source
[14] = Luminescence Cell-Based Dose Confirmation HTS to Identify Activators of 5'UTR Stem-Loop Driven Alpha-Synuclein mRNA Translation in H4 Neuroglioblastoma Cells. [Related pubchem assays: 1829 (Project Summary), 1814 (Primary HTS)]; assay type: functional
[15] = Luminescence Cell-Based Dose Response HTS to Identify Activators of Luciferase Translation or Activity in H4 […] Cells. [Related pubchem assays: 1829 (Project Summary), 1814 (Primary HTS)]; assay type: functional
H4 = assay: Luminescence Cell-Based Dose Response HTS to Identify Activators of 5'UTR Stem-Loop Driven Prion Protein mRNA Translation in H4 Neuroglioblastoma Cells. [Related pubchem assays: 1829 (Project Summary), 1814 (Primary HTS)]; assay type: functional; settings: Homo sapiens

## CCN(CC)Cc1ccccc1Sc1ccccc1
Prothrombin
  IC50: > 50 µM (not active)

## O=C1/C(=C/c2ccccn2)SC(=S)N1c1ccc(O)cc1
[1]
  IC50: 5.85 µM (active)

## COc1ccc(OC)c(C2=NOC(C(=O)Nc3cc(C)on3)C2)c1 (configuration not stated)
[2]
  IC50: > 109 µM (inactive)
[3]
  IC50: > 83.4 µM (inactive)

## C[C@H]1CN([C@@H](C)CO)C(=O)c2cc(NC(=O)Nc3ccccc3)ccc2O[C@H]1CN(C)Cc1ccc(-c2ccccc2)cc1
[4]
  AC50: 24.2 µM (active)
[5]
  AC50: > 52 µM (inactive)
[6]
  AC50: 39.4 µM (active)

## CCc1nnc(NC(=O)c2cc(-c3ccco3)nc3ccccc23)s1
[1]
  IC50: 3.18 µM (active)
[7]
  IC50: 4.01 µM (active)

## COCC(=O)n1nc(-c2ccccc2)nc1NCc1ccc(F)cc1
Prothrombin
  IC50: 0.103 µM (active)

## Cc1c(O)c(CN2CCCCC2)cc2c3c(c(=O)oc12)CCC3
Aminopeptidase N
  IC50: 37.5 µM (active)

## O=C(O)c1cccc(NC(=S)NC(=O)c2cccc(OCc3ccccc3)c2)c1
[8]
  IC50: > 66 µM (inactive)
[9]
  IC50: > 66 µM (inactive)

## Nc1nonc1C(=O)N/N=C/c1cc(Br)ccc1O
[10]
  EC50: > 160 µM (inactive)
Aminopeptidase N
  IC50: 3.45 µM (active)
Cells [11]
  EC50: 108 µM (active)
[12]
  EC50: 782 nM (active)
Cells [13]
  EC50: > 350 µM (not active)

## Nc1cc(Nc2ccccc2)c2nonc2c1[N+](=O)[O-]
[8]
  IC50: > 66 µM (inactive)
[9]
  IC50: > 66 µM (inactive)

## Cc1cc(N2CCN(c3ccccc3)CC2)nc(-c2ccccc2)n1
Prothrombin
  IC50: > 50 µM (not active)

## CC(=O)Nc1c(Nc2ccccc2)c2ccccc2oc1=O
[8]
  IC50: > 66 µM (inactive)
[9]
  IC50: > 66 µM (inactive)

## Cc1cccn2cc(-c3ccc4c(c3)NC(=O)CO4)nc12
[14]
  EC50: 7.24 µM (active)
[15]
  EC50: 34.6 µM (active)
H4
  EC50: 7 µM (active)
[2]
  IC50: > 109 µM (inactive)
[3]
  IC50: > 83.3 µM (inactive)

## CCOC(=O)N1CCN(C(=O)c2ccccc2N(C)S(C)(=O)=O)CC1
Prothrombin
  IC50: > 50 µM (not active)

## CCc1c(C)sc(NC(=O)c2cc(C3CC3)on2)c1C#N
[8]
  IC50: > 66 µM (inactive)
[9]
  IC50: > 66 µM (inactive)

## CC(C)C[C@H](NC(=O)c1[nH]cnc1C(=O)NC1CCN(C(=O)OC(C)(C)C)CC1)C(=O)OC(C)(C)C
Aminopeptidase N
  IC50: 63.9 µM (active)
